Laboratory results: ChEMBL document CHEMBL3804781, “Antitrypanosomal activity of 5-nitro-2-aminothiazole-based compounds” (Eur J Med Chem, 2016)
The source made the active and inactive calls. No cut-off for these calls is given here.

Test system: not listed separately
Assay: Selectivity index, ratio of IC50 for rat L6 cells to IC50 for amastigote stage of Trypanosoma cruzi Tulahuen C4 infected in rat L6 cells
Format: toxicity, cell-based
Settings: read-out: Ratio IC50

SMILES | selectivity ratio
COc1ccc(N2CCN(CC(=O)Nc3ncc([N+](=O)[O-])s3)CC2)cc1 | 14

Test system: Trypanosoma brucei
Assay: Activity at recombinant His-tagged Trypanosoma brucei NTR assessed as oxidation of NADH/min/mg of protein after 5 mins by spectrophotometric analysis
Settings: not given

SMILES | Activity
O=C(CN1CCN(c2ccc(Cl)c(Cl)c2)CC1)Nc1ncc([N+](=O)[O-])s1 | inactive
O=C(Cn1ccnc1[N+](=O)[O-])NCc1ccccc1 | Active

Results, then the molecule that gave them:

Activity | SMILES
inactive | O=C(Nc1ncc([N+](=O)[O-])s1)c1ccc(-c2ccccc2)cc1
Active | O=C(CN1CCN(c2ccc(C(F)(F)F)cc2)CC1)Nc1ncc([N+](=O)[O-])s1
inactive | O=C(COc1ccc(-c2ccccc2)cc1)Nc1ncc([N+](=O)[O-])s1
inactive | O=C(CN1CCN(C(c2ccccc2)c2ccc(Cl)cc2)CC1)Nc1ncc([N+](=O)[O-])s1 (centres undefined)
inactive | O=C(CN1CCN(c2ccccn2)CC1)Nc1ncc([N+](=O)[O-])s1

Test system: Trypanosoma brucei brucei
Assay: Antitrypanosomal activity against wild type bloodstream form of Trypanosoma brucei brucei assessed as inhibition of parasite growth after 3 days by resazurin assay
Format: functional, organism-based
Settings: 72 h

IC50 | SMILES
21.6 µM | O=C(CN1CCN(c2ccccn2)CC1)Nc1ncc([N+](=O)[O-])s1
